Converted amounts (≈) assume the structure as drawn.
Columns and labels:
Type in all cases: functional
[1] = test system: Trichophyton rubrum; test: Antifungal activity against Trichophyton rubrum isolate cmccftla by micro-broth dilution method
[2] = test system: Candida parapsilosis; test: Antifungal activity against Candida parapsilosis isolate 22019 by micro-broth dilution method; details: Lodderomyces parapsilosis
[3] = test system: Nakaseomyces glabratus; test: Antifungal activity against Candida glabrata isolate 537 by micro-broth dilution method
[4] = test system: Nannizzia gypsea; test: Antifungal activity against Microsporum gypseum isolate cmccftla by micro-broth dilution method
[5] = test system: Candida albicans; test: Antifungal activity against Candida albicans isolate Y0109 by micro-broth dilution method
[6] = test system: Aspergillus fumigatus; test: Antifungal activity against Aspergillus fumigatus isolate 7544 by micro-broth dilution method
[7] = test system: Cryptococcus neoformans; test: Antifungal activity against Cryptococcus neoformans isolate 32605 by micro-broth dilution method
[8] = test system: Candida albicans; test: Antifungal activity against Candida albicans isolate SC5314 by micro-broth dilution method

C[C@@H](c1cc(-c2ccc(S(C)(=O)=O)cc2)no1)[C@](O)(Cn1cncn1)c1ccc(F)cc1F
MIC80 [1]: 1 µg/mL (≈ 2.11 µM) | MIC80 [2]: 0.125 µg/mL (≈ 0.263 µM) | MIC80 [3]: 0.25 µg/mL (≈ 0.527 µM) | MIC80 [4]: 4 µg/mL (≈ 8.43 µM) | MIC80 [5]: 0.125 µg/mL (≈ 0.263 µM) | MIC80 [6]: 8 µg/mL (≈ 16.9 µM) | MIC80 [7]: 0.25 µg/mL (≈ 0.527 µM) | MIC80 [8]: 0.125 µg/mL (≈ 0.263 µM)

C[C@@H](c1cc(-c2ccccc2F)no1)[C@](O)(Cn1cncn1)c1cc(F)ccc1F
MIC80 [1]: 2 µg/mL (≈ 4.83 µM) | MIC80 [2]: 1 µg/mL (≈ 2.41 µM) | MIC80 [3]: 0.0625 µg/mL (≈ 0.151 µM) | MIC80 [4]: > 8 µg/mL | MIC80 [5]: 0.5 µg/mL (≈ 1.21 µM) | MIC80 [6]: > 8 µg/mL | MIC80 [7]: 0.0625 µg/mL (≈ 0.151 µM) | MIC80 [8]: 0.5 µg/mL (≈ 1.21 µM)

C[C@@H](c1cc(-c2ccc(Cl)cc2F)no1)[C@](O)(Cn1cncn1)c1ccc(F)cc1F
MIC80 [1]: 0.25 µg/mL (≈ 0.557 µM) | MIC80 [2]: 0.125 µg/mL (≈ 0.279 µM) | MIC80 [3]: 0.0156 µg/mL (≈ 0.0348 µM) | MIC80 [4]: 2 µg/mL (≈ 4.46 µM) | MIC80 [5]: 0.125 µg/mL (≈ 0.279 µM) | MIC80 [6]: 8 µg/mL (≈ 17.8 µM) | MIC80 [7]: 0.0313 µg/mL (≈ 0.0697 µM) | MIC80 [8]: 0.125 µg/mL (≈ 0.279 µM)

C[C@@H](c1cc(-c2cc(F)ccc2F)no1)[C@](O)(Cn1cncn1)c1cc(F)ccc1F
MIC80 [1]: 8 µg/mL (≈ 18.5 µM) | MIC80 [2]: 1 µg/mL (≈ 2.31 µM) | MIC80 [3]: 0.125 µg/mL (≈ 0.289 µM) | MIC80 [4]: > 8 µg/mL | MIC80 [5]: 0.5 µg/mL (≈ 1.16 µM) | MIC80 [6]: > 8 µg/mL | MIC80 [7]: 0.125 µg/mL (≈ 0.289 µM) | MIC80 [8]: 1 µg/mL (≈ 2.31 µM)

C[C@@H](c1cc(-c2ccc(F)c(F)c2)no1)[C@](O)(Cn1cncn1)c1ccc(F)cc1F
MIC80 [1]: 0.5 µg/mL (≈ 1.16 µM) | MIC80 [2]: 0.125 µg/mL (≈ 0.289 µM) | MIC80 [3]: 0.0156 µg/mL (≈ 0.0361 µM) | MIC80 [4]: 4 µg/mL (≈ 9.25 µM) | MIC80 [5]: 0.125 µg/mL (≈ 0.289 µM) | MIC80 [6]: 8 µg/mL (≈ 18.5 µM) | MIC80 [7]: 0.125 µg/mL (≈ 0.289 µM) | MIC80 [8]: 0.125 µg/mL (≈ 0.289 µM)

C[C@@H](c1cc(-c2c(F)ccc(F)c2F)no1)[C@](O)(Cn1cncn1)c1ccc(F)cc1F
MIC80 [1]: 0.0625 µg/mL (≈ 0.139 µM) | MIC80 [2]: 0.125 µg/mL (≈ 0.278 µM) | MIC80 [3]: 0.0625 µg/mL (≈ 0.139 µM) | MIC80 [4]: 0.5 µg/mL (≈ 1.11 µM) | MIC80 [5]: 0.125 µg/mL (≈ 0.278 µM) | MIC80 [6]: 2 µg/mL (≈ 4.44 µM) | MIC80 [7]: 0.0625 µg/mL (≈ 0.139 µM) | MIC80 [8]: 0.25 µg/mL (≈ 0.555 µM)

C[C@@H](c1cc(-c2ccc([N+](=O)[O-])cc2)no1)[C@](O)(Cn1cncn1)c1ccc(F)cc1F
MIC80 [1]: 1 µg/mL (≈ 2.27 µM) | MIC80 [2]: 0.5 µg/mL (≈ 1.13 µM) | MIC80 [3]: 0.5 µg/mL (≈ 1.13 µM) | MIC80 [4]: 2 µg/mL (≈ 4.53 µM) | MIC80 [5]: 0.125 µg/mL (≈ 0.283 µM) | MIC80 [6]: > 8 µg/mL | MIC80 [7]: 0.125 µg/mL (≈ 0.283 µM) | MIC80 [8]: 0.125 µg/mL (≈ 0.283 µM)

C[C@@H](c1cc(-c2ccc(F)cc2)no1)[C@](O)(Cn1cncn1)c1ccc(F)cc1F
MIC80 [1]: 0.0625 µg/mL (≈ 0.151 µM) | MIC80 [2]: 0.0625 µg/mL (≈ 0.151 µM) | MIC80 [3]: 0.0313 µg/mL (≈ 0.0755 µM) | MIC80 [4]: 0.5 µg/mL (≈ 1.21 µM) | MIC80 [5]: 0.125 µg/mL (≈ 0.302 µM) | MIC80 [6]: 2 µg/mL (≈ 4.83 µM) | MIC80 [7]: 0.125 µg/mL (≈ 0.302 µM) | MIC80 [8]: 0.25 µg/mL (≈ 0.603 µM)

C[C@@H](c1cc(-c2ccc(Cl)c(F)c2)no1)[C@](O)(Cn1cncn1)c1ccc(F)cc1F
MIC80 [1]: 0.5 µg/mL (≈ 1.11 µM) | MIC80 [2]: 0.5 µg/mL (≈ 1.11 µM) | MIC80 [3]: 0.25 µg/mL (≈ 0.557 µM) | MIC80 [4]: 4 µg/mL (≈ 8.91 µM) | MIC80 [5]: 0.0156 µg/mL (≈ 0.0348 µM) | MIC80 [6]: > 8 µg/mL | MIC80 [7]: 0.25 µg/mL (≈ 0.557 µM) | MIC80 [8]: 0.0313 µg/mL (≈ 0.0697 µM)

C[C@@H](c1cc(-c2cccc(F)c2F)no1)[C@](O)(Cn1cncn1)c1cc(F)ccc1F
MIC80 [1]: 8 µg/mL (≈ 18.5 µM) | MIC80 [2]: 2 µg/mL (≈ 4.63 µM) | MIC80 [3]: 0.125 µg/mL (≈ 0.289 µM) | MIC80 [4]: > 8 µg/mL | MIC80 [5]: 0.5 µg/mL (≈ 1.16 µM) | MIC80 [6]: > 8 µg/mL | MIC80 [7]: 0.125 µg/mL (≈ 0.289 µM) | MIC80 [8]: 0.5 µg/mL (≈ 1.16 µM)

C[C@@H](c1cc(-c2cc(F)ccc2F)no1)[C@](O)(Cn1cncn1)c1ccc(F)cc1F
MIC80 [1]: 0.125 µg/mL (≈ 0.289 µM) | MIC80 [2]: 0.125 µg/mL (≈ 0.289 µM) | MIC80 [3]: 0.0625 µg/mL (≈ 0.145 µM) | MIC80 [4]: 1 µg/mL (≈ 2.31 µM) | MIC80 [5]: 0.0625 µg/mL (≈ 0.145 µM) | MIC80 [6]: 4 µg/mL (≈ 9.25 µM) | MIC80 [7]: 0.125 µg/mL (≈ 0.289 µM) | MIC80 [8]: 0.0625 µg/mL (≈ 0.145 µM)

C[C@@H](c1cc(-c2ccc(F)c(F)c2)no1)[C@](O)(Cn1cncn1)c1cc(F)ccc1F
MIC80 [1]: 1 µg/mL (≈ 2.31 µM) | MIC80 [2]: 0.25 µg/mL (≈ 0.578 µM) | MIC80 [3]: 0.0156 µg/mL (≈ 0.0361 µM) | MIC80 [4]: > 8 µg/mL | MIC80 [5]: 0.125 µg/mL (≈ 0.289 µM) | MIC80 [6]: > 8 µg/mL | MIC80 [7]: 0.125 µg/mL (≈ 0.289 µM) | MIC80 [8]: 0.125 µg/mL (≈ 0.289 µM)

C[C@@H](c1cc(-c2cc(F)cc(F)c2)no1)[C@](O)(Cn1cncn1)c1ccc(F)cc1F
MIC80 [1]: 0.25 µg/mL (≈ 0.578 µM) | MIC80 [2]: 0.25 µg/mL (≈ 0.578 µM) | MIC80 [3]: 0.0625 µg/mL (≈ 0.145 µM) | MIC80 [4]: 2 µg/mL (≈ 4.63 µM) | MIC80 [5]: 0.0625 µg/mL (≈ 0.145 µM) | MIC80 [6]: 4 µg/mL (≈ 9.25 µM) | MIC80 [7]: 0.125 µg/mL (≈ 0.289 µM) | MIC80 [8]: 0.125 µg/mL (≈ 0.289 µM)

C[C@@H](c1cc(-c2ccc(C#N)cc2)no1)[C@](O)(Cn1cncn1)c1ccc(F)cc1F
MIC80 [1]: 0.125 µg/mL (≈ 0.297 µM) | MIC80 [2]: 0.125 µg/mL (≈ 0.297 µM) | MIC80 [3]: 0.0625 µg/mL (≈ 0.148 µM) | MIC80 [4]: 1 µg/mL (≈ 2.37 µM) | MIC80 [5]: 0.25 µg/mL (≈ 0.593 µM) | MIC80 [6]: 8 µg/mL (≈ 19 µM) | MIC80 [7]: 0.125 µg/mL (≈ 0.297 µM) | MIC80 [8]: 0.25 µg/mL (≈ 0.593 µM)

C[C@@H](c1cc(-c2ccc(OC(F)F)cc2)no1)[C@](O)(Cn1cncn1)c1ccc(F)cc1F
MIC80 [1]: 0.125 µg/mL (≈ 0.27 µM) | MIC80 [2]: 0.125 µg/mL (≈ 0.27 µM) | MIC80 [3]: 0.0625 µg/mL (≈ 0.135 µM) | MIC80 [4]: 1 µg/mL (≈ 2.16 µM) | MIC80 [5]: 0.0625 µg/mL (≈ 0.135 µM) | MIC80 [6]: 8 µg/mL (≈ 17.3 µM) | MIC80 [7]: 0.125 µg/mL (≈ 0.27 µM) | MIC80 [8]: 0.0625 µg/mL (≈ 0.135 µM)

C[C@@H](c1cc(-c2cccc(F)c2F)no1)[C@](O)(Cn1cncn1)c1ccc(F)cc1F
MIC80 [1]: 0.125 µg/mL (≈ 0.289 µM) | MIC80 [2]: 0.25 µg/mL (≈ 0.578 µM) | MIC80 [3]: 0.125 µg/mL (≈ 0.289 µM) | MIC80 [4]: 0.5 µg/mL (≈ 1.16 µM) | MIC80 [5]: 0.0625 µg/mL (≈ 0.145 µM) | MIC80 [6]: 2 µg/mL (≈ 4.63 µM) | MIC80 [7]: 0.125 µg/mL (≈ 0.289 µM) | MIC80 [8]: 0.0625 µg/mL (≈ 0.145 µM)
